US20240277666A1, “Combination Treatments for Cancer Patients and Methods for Identifying Same” (Scandion Oncology A/S, priority 2021, published 2024)

Legend:
UGT1A1 [1] = target: T1, UGT1A1 (Homo sapiens, UniProt P22309); experiment: in vitro UGT1A1 inhibition assay; type: biochemical; details: read-out: IC50 towards UGT1A1
T1 sequence (P22309 26-533): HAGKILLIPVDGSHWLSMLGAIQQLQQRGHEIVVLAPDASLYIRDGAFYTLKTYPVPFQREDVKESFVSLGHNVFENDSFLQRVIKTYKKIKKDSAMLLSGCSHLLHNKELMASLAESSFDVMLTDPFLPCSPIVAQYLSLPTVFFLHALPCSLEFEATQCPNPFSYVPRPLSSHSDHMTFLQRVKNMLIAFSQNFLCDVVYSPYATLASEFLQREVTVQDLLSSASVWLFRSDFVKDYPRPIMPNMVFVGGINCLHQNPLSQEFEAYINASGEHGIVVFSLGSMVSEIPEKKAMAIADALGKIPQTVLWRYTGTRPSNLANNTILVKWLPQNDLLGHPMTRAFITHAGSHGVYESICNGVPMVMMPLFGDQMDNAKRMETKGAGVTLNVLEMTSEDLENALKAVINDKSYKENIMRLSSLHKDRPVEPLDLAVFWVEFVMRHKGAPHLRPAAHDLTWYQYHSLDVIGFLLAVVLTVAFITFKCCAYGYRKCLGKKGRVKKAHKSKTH
From the text: The term “UGT1A1 inhibitor” as used herein refers to a molecule which is capable of binding to the enzyme uridine diphosphate (UDP)-glycuronosyl transferase (UGT1A1) and decrease the enzymatic activity of UGT1A1. The UGT1A1 enzyme, primarily found in the liver, is responsible for the gluronidation of bilirubin, converting it from the toxic form of bilirubin (unconjugated bilirubin) to its nontoxic, water-soluble form (conjugated bilirubin). Whether or not a particular molecule is an UGT1A1 inhibitor can be determined by examining the molecule's IC50 in vitro in common UGT1A1 inhibition assays. […] In one embodiment, the IC50 is 5 μM or less, such as 4 μM or less, such as 3 μM or less, such as 2 μM or less, for example between 0.1 μM and 2.0 μM. […] In some embodiments, the UGT1A1 inhibitor of the present disclosure is a non-competitive UGT1A1 inhibitor. In some embodiments, the UGT1A1 inhibitor is a competitive UGT1A1 inhibitor. In one embodiment, the UGT1A1 inhibitor is also SRPK1 inhibitor and/or an ABCG2 inhibitor.

UGT1A1 [2] = target: T1, UGT1A1; experiment: Clinical study of SCO-101 with FOLFIRI: serum bilirubin / bilirubin index as surrogate of UGT1A1 activity; type: in vivo; parameters: from tissue; host or cells: patients in vivo (enzyme primarily in the liver); details: for mean bilirubin index score (day 12 / day 7 bilirubin serum concentration): cohort 1 (150 mg SCO-101), cycle 1; for highest bilirubin index score / lowest bilirubin index score: cohort 1, cycle 1
Description: The term “bilirubin index” as used herein or “bilirubin index score” which are used interchangeably, refer to a patient's rate of bilirubin normalization subsequent to administration of an UGT1A1 inhibitor to the patient. Herein, the bilirubin index is determined subsequent to administration of an UGT1A1 inhibitor to the patient for a number of consecutive days, such as 1, 2, 3, 4, 5, or 6, preferably 6 days. In some embodiments, based on 6 consecutive days of administration with an UGT1A1 inhibitor, the bilirubin index can be determined as the bilirubin serum concentration (unconjugated or total bilirubin) on day 12 divided with the bilirubin serum concentration on day 7 and thus is an indicator of how much the patients' UGT1A1 activity has normalized following cessation of treatment with the UGT1A1 inhibitor, such as SCO-101, and can be determined using bilirubin as a surrogate marker. Based on 6 consecutive days of administration with an UGT1A1 inhibitor, the bilirubin index is determined as the bilirubin serum concentration (unconjugated or total bilirubin) on day 12 divided with the bilirubin serum concentration on day 7 and thus is an indicator of how much the patients' UGT1A1 activity has normalized following cessation of SCO-101 treatment, and can be determined using bilirubin as a surrogate marker. In some embodiments, the bilirubin index is determined by comparison on bilirubin serum concentrations obtained from other days than day 7 and day 12. The bilirubin index is also referred to herein as the CT2/CT1 ratio, wherein CT1 is the plasma concentration of unconjugated bilirubin in the patient at a time point T1, whereas CT2 is the plasma concentration of unconjugated bilirubin in the patient at a time point T2 which is after discontinuing administration of the UGT1A1 inhibitor.
Bilirubin: Blood sampling for analysis of bilirubin (total, unconjugated and conjugated) were withdrawn at Screening (up to 4 weeks prior start of treatment), day 5, day 7 and day 12 in the first treatment cycle.
UGT1A1 is the primary enzyme responsible for conjugation of bilirubin and metabolism of Irinotecan's active metabolite SN-38.

IC50 (UGT1A1 [1]): 700 to 1900 nM
effect on unconjugated bilirubin serum concentration (UGT1A1 [2]; cancer patients, SCO-101 daily days 1-6): specific and dose dependent increase
reversibility of UGT1A1 inhibition / bilirubin increase after discontinuation of SCO-101 (UGT1A1 [2]; cancer patients, blood bilirubin after last SCO-101 treatment): completely reversible
bilirubin index of patients with RAS mutation (UGT1A1 [2]; cohort 1, cycle 1, day 12 / day 7): above 0.4
mean bilirubin index score (day 12 / day 7 bilirubin serum concentration) (UGT1A1 [2]; six RAS mutated patients): 0.59
highest bilirubin index score (UGT1A1 [2]; six RAS mutated patients): 0.76
lowest bilirubin index score (UGT1A1 [2]; six RAS mutated patients): 0.25
mean bilirubin index score (day 12 / day 7 bilirubin serum concentration) (UGT1A1 [2]; six RAS wild type patients): approximately 0.15
highest bilirubin index score (UGT1A1 [2]; six RAS wild type patients): 0.28
lowest bilirubin index score (UGT1A1 [2]; six RAS wild type patients): 0.04
Compound: O=C(Nc1cc(C(F)(F)F)cc(C(F)(F)F)c1)Nc1ccc(Br)cc1-c1nnn[nH]1 [SCO-101]
